Measured values from ChEMBL document CHEMBL1201862, “PubChem BioAssay data set” (2004).
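All cell lines were grown in 96-well plates and treated with compound for 48 hours. GI50 marks 50% less growth.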 Activity calls are given as the source filed them. Rule as the data show it: active = GI50 up to about 1.1 µM and inactive = higher.

What was measured:
Assay in all cases: DTP human tumour cell line panel, 48 h
SNB-19 = test system: SNB-19
HCT-15 = test system: HCT-15
IGROV-1 = test system: IGROV-1
SW-620 = test system: SW-620
K562 = test system: K562
XF498 = test system: XF498
HOP-62 = test system: HOP-62
NCI-H23 = test system: NCI-H23
SK-MEL-28 = test system: SK-MEL-28
DMS-273 = test system: DMS-273
UO-31 = test system: UO-31
HCC 2998 = test system: HCC 2998
LOX IMVI = test system: LOX IMVI
SF-268 = test system: SF-268
LXFL 529 = test system: LXFL 529
NCI-H460 = test system: NCI-H460
COLO 205 = test system: COLO 205
SF-539 = test system: SF-539
UACC-62 = test system: UACC-62
SF-295 = test system: SF-295
TK-10 = test system: TK-10
OVCAR-8 = test system: OVCAR-8
KM-20L2 = test system: KM-20L2
MOLT-4 = test system: MOLT-4
DLD-1 = test system: DLD-1
HL-60 = test system: HL-60
SR = test system: SR
CCRF-CEM = test system: CCRF-CEM
KM12 = test system: KM12
UACC-257 = test system: UACC-257
A549 = test system: A549
Malme-3M = test system: Malme-3M
SK-OV-3 = test system: SK-OV-3
HT-29 = test system: HT-29
NCI-H522 = test system: NCI-H522
SN12C = test system: SN12C
786-0 = test system: 786-0
RXF 393 = test system: RXF 393
M14 = test system: M14
HCT-116 = test system: HCT-116
SK-MEL-2 = test system: SK-MEL-2
NCI-H226 = test system: NCI-H226
EKVX = test system: EKVX
ACHN = test system: ACHN
SK-MEL-5 = test system: SK-MEL-5
M19-MEL = test system: M19-MEL
OVCAR-3 = test system: OVCAR-3
OVCAR-4 = test system: OVCAR-4
U-251 = test system: U-251
SNB-78 = test system: SNB-78
SNB-75 = test system: SNB-75
DMS-114 = test system: DMS-114
RPMI-8226 = test system: RPMI-8226
A498 = test system: A498
MDA-MB-231 = test system: MDA-MB-231
BT-549 = test system: BT-549
NCI/ADR-RES = test system: NCI/ADR-RES
OVCAR-5 = test system: OVCAR-5
HOP-18 = test system: HOP-18
DU-145 = test system: DU-145
Hs-578T = test system: Hs-578T
T47D = test system: T47D
MCF7 = test system: MCF7
HOP-92 = test system: HOP-92
CAKI-1 = test system: CAKI-1
PC-3 = test system: PC-3
MDA-MB-435 = test system: MDA-MB-435

Measured: GI50

Cc1ccc(Cn2c(C)nc3c2C(=O)c2ccccc2C3=O)cc1
0.619 µM: HCT-15
active: K562 0.834 µM | DMS-273 1.07 µM | LOX IMVI 0.597 µM | NCI-H460 0.387 µM | MOLT-4 0.64 µM | SR 0.331 µM | HCT-116 0.755 µM
inactive: SNB-19 11.6 µM | IGROV-1 5.45 µM | SW-620 3.33 µM | XF498 15.1 µM | HOP-62 14 µM | NCI-H23 5.21 µM | SK-MEL-28 23.5 µM | UO-31 6.32 µM | HCC 2998 17.6 µM | SF-268 3.43 µM | LXFL 529 1.72 µM | COLO 205 15.8 µM | SF-539 1.32 µM | UACC-62 1.12 µM | SF-295 7.66 µM | TK-10 13 µM | OVCAR-8 3.05 µM | KM-20L2 5.21 µM | DLD-1 1.22 µM | HL-60 1.91 µM | CCRF-CEM 1.98 µM | KM12 4.56 µM | UACC-257 11.7 µM | A549 4.63 µM | Malme-3M 10.9 µM | SK-OV-3 13.8 µM | HT-29 1.27 µM | NCI-H522 3.14 µM | SN12C 6.18 µM | 786-0 2.18 µM | RXF 393 11.4 µM | M14 27.7 µM | SK-MEL-2 15.3 µM | NCI-H226 6.9 µM | EKVX 18.2 µM | ACHN 6.22 µM | SK-MEL-5 4.52 µM | M19-MEL 7.05 µM | OVCAR-3 10.6 µM | OVCAR-4 13.3 µM | U-251 1.88 µM | SNB-78 20.3 µM | SNB-75 13.9 µM

COC(=O)CC(NC(=O)OCc1ccccc1)C(C(=O)OCc1ccccc1)C(C)(OC)OC (centres undefined)
32.1 µM: HCT-15
inactive: SNB-19 38.2 µM | IGROV-1 19.6 µM | SW-620 32.9 µM | K562 10.6 µM | XF498 14.1 µM | HOP-62 44.9 µM | NCI-H23 17.4 µM | SK-MEL-28 52.1 µM | DMS-273 33.3 µM | UO-31 14.6 µM | HCC 2998 38 µM | DMS-114 22.8 µM | LOX IMVI 16.6 µM | SF-268 39.9 µM | LXFL 529 5.69 µM | NCI-H460 31.7 µM | COLO 205 16.9 µM | SF-539 29.2 µM | UACC-62 10.5 µM | SF-295 24.6 µM | TK-10 39.2 µM | OVCAR-8 19.5 µM | KM-20L2 45.4 µM | MOLT-4 5.94 µM | DLD-1 20.9 µM | HL-60 15.1 µM | SR 8.81 µM | CCRF-CEM 13 µM | UACC-257 23.7 µM | RPMI-8226 10 µM | A549 17.3 µM | Malme-3M 28 µM | HT-29 34.6 µM | SN12C 30.5 µM | 786-0 33.3 µM | RXF 393 16.8 µM | M14 33.6 µM | HCT-116 34.3 µM | SK-MEL-2 17.6 µM | NCI-H226 22.6 µM | EKVX 29.7 µM | A498 3.95 µM | ACHN 26.4 µM | SK-MEL-5 12.4 µM | M19-MEL 27.7 µM | OVCAR-3 21.3 µM | OVCAR-4 28.6 µM | U-251 27 µM | SNB-75 16.4 µM

COc1cc2c(cc1OC)C(Cl)C(c1ccc(F)cc1)=C2Cl (centres undefined)
inactive: SNB-19 17.5 µM | MDA-MB-231 13.8 µM | IGROV-1 17.4 µM | SW-620 12.3 µM | K562 6.12 µM | HOP-62 16.5 µM | NCI-H23 11.8 µM | SK-MEL-28 17.3 µM | DMS-273 16.4 µM | BT-549 4.79 µM | UO-31 13.5 µM | HCC 2998 15.1 µM | DMS-114 13.2 µM | LOX IMVI 11.6 µM | SF-268 15.7 µM | LXFL 529 11.7 µM | NCI-H460 11.5 µM | COLO 205 16.6 µM | SF-539 16.3 µM | NCI/ADR-RES 13.6 µM | OVCAR-5 16.6 µM | HOP-18 15.2 µM | UACC-62 12.9 µM | SF-295 14.4 µM | TK-10 13.6 µM | OVCAR-8 14.7 µM | KM-20L2 14.8 µM | MOLT-4 5.41 µM | DU-145 14.9 µM | DLD-1 16.9 µM | HL-60 5.68 µM | SR 3.01 µM | Hs-578T 11.7 µM | CCRF-CEM 5.77 µM | T47D 10 µM | KM12 16.1 µM | UACC-257 14.9 µM | RPMI-8226 9.06 µM | A549 14.9 µM | Malme-3M 13.2 µM | SK-OV-3 20.1 µM | MCF7 11.6 µM | HT-29 15.9 µM | NCI-H522 7.73 µM | SN12C 12.8 µM | 786-0 11.7 µM | RXF 393 15.4 µM | HOP-92 9.08 µM | M14 15.4 µM | CAKI-1 13.8 µM | HCT-116 12.9 µM | SK-MEL-2 12.8 µM | NCI-H226 22.7 µM | EKVX 7.19 µM | A498 14.9 µM | ACHN 13.2 µM | PC-3 12.4 µM | SK-MEL-5 14.1 µM | M19-MEL 16.8 µM | OVCAR-3 16.7 µM | MDA-MB-435 11.4 µM | U-251 13.1 µM | SNB-78 15.4 µM | SNB-75 14.6 µM
12.9 µM: HCT-15

CN(C)CC(/C(Cc1ccccc1)=N\NC(=S)NN)c1ccccc1 (centres undefined)
> 100 µM: HCT-15
inactive: SNB-19 > 100 µM | IGROV-1 > 100 µM | SW-620 > 100 µM | K562 > 100 µM | XF498 > 100 µM | HOP-62 > 100 µM | NCI-H23 > 100 µM | SK-MEL-28 > 100 µM | DMS-273 > 100 µM | UO-31 > 100 µM | HCC 2998 > 100 µM | DMS-114 > 100 µM | LOX IMVI > 100 µM | SF-268 > 100 µM | LXFL 529 > 100 µM | NCI-H460 > 100 µM | COLO 205 > 100 µM | SF-539 > 100 µM | OVCAR-5 > 100 µM | UACC-62 > 100 µM | SF-295 > 100 µM | TK-10 > 100 µM | OVCAR-8 > 100 µM | KM-20L2 > 100 µM | MOLT-4 > 100 µM | DLD-1 > 100 µM | HL-60 > 100 µM | SR > 100 µM | KM12 > 100 µM | UACC-257 > 100 µM | RPMI-8226 > 100 µM | A549 > 100 µM | Malme-3M > 100 µM | SK-OV-3 > 100 µM | HT-29 > 100 µM | NCI-H522 > 100 µM | SN12C > 100 µM | 786-0 > 100 µM | RXF 393 > 100 µM | HOP-92 > 100 µM | M14 > 100 µM | CAKI-1 > 100 µM | HCT-116 > 100 µM | NCI-H226 > 100 µM | ACHN > 100 µM | M19-MEL > 100 µM | OVCAR-3 > 100 µM | OVCAR-4 > 100 µM | U-251 > 100 µM | SNB-78 > 100 µM | SNB-75 > 100 µM

C=CCc1ccc(Oc2cc(CC=C)c3c(c2O)O[C@@H](CO)[C@H]3c2ccc(O)c(-c3cc(CC=C)ccc3O)c2)cc1
30.2 µM: HCT-15
inactive: SNB-19 39.5 µM | IGROV-1 32.7 µM | SW-620 33.9 µM | K562 37.6 µM | HOP-62 55.7 µM | NCI-H23 47.3 µM | SK-MEL-28 25.8 µM | DMS-273 42.9 µM | UO-31 77.1 µM | HCC 2998 45.9 µM | DMS-114 22.5 µM | LOX IMVI 16.5 µM | SF-268 58.7 µM | LXFL 529 30.8 µM | NCI-H460 24 µM | COLO 205 52 µM | SF-539 40.9 µM | OVCAR-5 > 100 µM | HOP-18 > 100 µM | UACC-62 30.1 µM | SF-295 67.1 µM | TK-10 > 100 µM | OVCAR-8 41.7 µM | KM-20L2 32.9 µM | DLD-1 52.1 µM | HL-60 23.8 µM | SR 12.4 µM | CCRF-CEM 20.5 µM | KM12 35.3 µM | UACC-257 > 100 µM | RPMI-8226 32.5 µM | A549 > 100 µM | Malme-3M > 100 µM | SK-OV-3 > 100 µM | HT-29 23.4 µM | NCI-H522 18.3 µM | SN12C 41.9 µM | 786-0 54 µM | RXF 393 65.2 µM | HOP-92 52.2 µM | M14 47.6 µM | CAKI-1 > 100 µM | HCT-116 61.9 µM | SK-MEL-2 24.3 µM | NCI-H226 67.1 µM | EKVX 46.7 µM | A498 80 µM | ACHN 67 µM | SK-MEL-5 87.3 µM | M19-MEL 42.2 µM | OVCAR-3 33 µM | OVCAR-4 54.7 µM | U-251 23.1 µM | SNB-78 52 µM | SNB-75 > 100 µM
